Measurements taken from patent publication US7115655B2, “Pyranocoumarin derivatives” (Elcom Biotechnology, Co. Ltd., priority 2002, dated 2006).
Read-outs that look alike come from different tables or passages of the source.

Tests used:
[1] = system: mice with scopolamine-induced amnesia; experiment: Passive avoidance test in mice with scopolamine-induced amnesia; format: in vivo, Male ICR mice; conditions: for cognition-enhancing activity in passive avoidance test, in words: mice with scopolamine-induced amnesia
Text: Male ICR mice weighing 25 to 30 g that had been bred with sufficient water and feed in the Experimental Animal Breeding Center of Seoul National University were supplied and adapted to the laboratory environment for 1 week to be used in this experiment.
An avoidance box (40×20×20 cm) equipped with 3 mm stainless steel rod spaced 0.5 cm apart at the bottom was divided into a light compartment and a dark compartment, and when mice placed in the light compartment entered the dark compartment, an electrical shock (0.1 mA/10 g body weight) was delivered through the stainless steel rods. The above procedure was repeated after 24 hours, and the time for which the mice stayed at the light compartment was measured and used as an index of memorizing the training of the previous day. Passive avoidance test was performed according to the method of Christensen et al. (Cholinergic ‘Blockade’ as a model of the cognitive deficits in Alzheimer's disease, Brain 115: 1681–1699, 1992). Specifically, scopolamine was dissolved in physiological saline to 1.5 mg/kg solution, and the solution was subcutaneously injected to mice 30 minutes before the training to induce amnesia. The Angelica gigas extract was intraperitoneally injected to the mice 1 hour before the scopolamine administration, and observed for its effect on the scopolamine-induced amnesia.
Passive avoidance test was performed according to the method of the above Experiment 1(2) to measure effects of pyranocoumarin derivatives of the present invention. Velnacrine (AChE inhibitor) was used as a positive control.

[2] = target: T1, AChE (Electric eel Type V-S, Sigma) (Electrophorus electricus, UniProt O42275); experiment: biochemical; format: biochemical
T1 construct: purchased Sigma Type V-S
T1 sequence (O42275 24-633): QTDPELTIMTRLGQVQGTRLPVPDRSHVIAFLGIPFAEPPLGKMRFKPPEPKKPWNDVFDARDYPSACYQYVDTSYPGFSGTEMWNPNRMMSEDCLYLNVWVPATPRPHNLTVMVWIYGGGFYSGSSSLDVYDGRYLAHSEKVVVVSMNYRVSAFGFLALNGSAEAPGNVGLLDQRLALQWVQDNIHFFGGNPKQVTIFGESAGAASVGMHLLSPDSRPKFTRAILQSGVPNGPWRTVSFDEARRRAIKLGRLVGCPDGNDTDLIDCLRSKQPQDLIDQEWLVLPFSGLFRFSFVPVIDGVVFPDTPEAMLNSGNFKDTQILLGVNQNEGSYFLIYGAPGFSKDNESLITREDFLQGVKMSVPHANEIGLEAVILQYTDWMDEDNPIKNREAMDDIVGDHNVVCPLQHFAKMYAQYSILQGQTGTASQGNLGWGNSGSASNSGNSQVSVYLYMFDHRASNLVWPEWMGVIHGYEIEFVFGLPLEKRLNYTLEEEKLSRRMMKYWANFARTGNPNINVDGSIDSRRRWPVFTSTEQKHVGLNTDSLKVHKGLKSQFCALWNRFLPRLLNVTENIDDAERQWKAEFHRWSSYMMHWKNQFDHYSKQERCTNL
Procedure: AChE inhibitory activity of the methanolic extract and CH2Cl2 fraction of Angelica gigas of the above Example 1 was measured by the method of Ellman et al. (Ellman, et al. (1961) A new and rapid colorimetric determination of acetylcholinesterase activity, Biochem. Pharmacol. 7: 88–95).
(§1) To a test tube containing a chromogen (5,5-dithiobis-2-nitrobenzoic acid) and a sample was added AChE homogenated with phosphate buffered saline (Electric eel Type V-S, Sigma), and a reaction was performed at 37° C. for 5 minutes, and thereto was added a substrate for the enzyme, […], and a reaction was further performed at 37° C. for 3 minutes. Neostigmine bromide was added thereto to terminate the reaction, and then, the absorbance was measured at 412 nm to obtain AChE inhibition (%). The above procedure was repeated with no AChE as a blank, or with no sample as a control.
AChE inhibitory activity of decursin of the above Example 2 and Compound 3 of the above Example 3 was measured according to the method in Experiment 1.
as §1, with “minutes. The above procedure was repeated with no AChE as a blank or with no sample as a control.” for “minutes.”, “obtain IC50 of” for “obtain”, “inhibition.” for “inhibition (%). The above procedure was repeated with no AChE as a blank, or with no sample as a control.”

[3] = Table 4, 1 mg/kg + scopolamine 1.5 mg/kg, Mean ± S.D.
[4] = Table 4, 5 mg/kg + scopolamine 1.5 mg/kg, Mean ± S.D.
[5] = read-out: IC50 of AChE inhibition

SMILES | Step-through latency [1, 3] | Step-through latency [1, 4] | cognition-enhancing activity in passive avoidance test, in words [1] | IC50 [2, 5] | AChE inhibitory activity, comparison in words [2] | further results
CC1(C)Oc2cc3oc(=O)ccc3cc2C[C@@H]1O [Compound 2, decursinol, reference compound] | 52.1 ± 8.8 s | 54.4 ± 10.6 s | did not show such activity | 28 µM | – | Step-through latency ([1]; Table 4, 10 mg/kg + scopolamine 1.5 mg/kg, Mean ± S.D.): 43.2 ± 7.7 s
CN1[C@@H]2C[C@@H](OC(=O)[C@H](CO)c3ccccc3)C[C@H]1[C@@H]1O[C@@H]12 [Scopolamine, scopolamine, reference compound] | – | – | – | – | – | Step-through latency ([1]; Table 2, scopolamine alone 1.5 mg/kg s.c. (amnesia induction), saline 158.8 ± 27.6): 29.7 ± 3.1 s; Step-through latency ([1]; Table 4, scopolamine alone 1.5 mg/kg s.c. (amnesia induction), saline 172.0 ± 16.0): 29.7 ± 2.8 s; Step-through latency ([1]; Table 5, scopolamine alone 1.5 mg/kg s.c. (amnesia induction), saline 179.7 ± 0.6): 28.4 ± 10.1 s
Nc1c2c(nc3ccccc13)CCCC2O (stereo not drawn) [velnacrine, Velnacrine, reference compound] | 73.4 ± 6.4 s | – | – | – | – | –
COc1ccc(/C=C/C(=O)OC2Cc3cc4ccc(=O)oc4cc3OC2(C)C)cc1 (stereo not drawn) [Compound 3] | – | – | excellent cognition-enhancing activity | 51 µM | better AChE inhibitory activity than decursinol | Step-through latency ([1]; Table 5, 1 mg/kg + scopolamine 1.5 mg/kg, Mean ± S.D.): 42.0 ± 17.9 s; Step-through latency ([1]; Table 5, 2 mg/kg + scopolamine 1.5 mg/kg, Mean ± S.D.): 86.0 ± 18.2 s; Step-through latency ([1]; Table 5, 5 mg/kg + scopolamine 1.5 mg/kg, Mean ± S.D.): 171.2 ± 18.7 s
CC(C)=CC(=O)O[C@H]1Cc2cc3ccc(=O)oc3cc2OC1(C)C [Compound 1, decursin] | 108.6 ± 15.0 s | 96.5 ± 18.2 s | excellent cognition-enhancing activity | – | better AChE inhibitory activity than decursinol | Step-through latency ([1]; Table 4, 0.5 mg/kg + scopolamine 1.5 mg/kg, Mean ± S.D.): 32.1 ± 13.4 s; IC50 [2]: 480 µM
